Experimental findings from patent publication US20030124132A1 (University of Texas, published 2003) are described below.

The subject of data set [1] is L540rec human Hodgkin's lymphoma tumors. Put plainly: Tumor tissue necrosis in L540 Hodgkin's lymphoma-bearing mice after tTF and/or endotoxin. It is filed as in vivo, SCID mice. The method, then: For in vivo studies, a metastasizing mouse model for human Hodgkin's lymphoma was used. 1×10^7 L540rec cells were injected subcutaneously into the right flank of SCID mice resulting in a subcutaneous tumor with lymph node metastases in the regional lymph node stations. Subcutanous tumors were measured with a caliper in three perpendicular directions a. b, and c, and volumes calculated according to the formula V=π/6×a×b×c.
Treatment was initiated when subcutaneous tumors reached a size of 150 to 300 μl. Reagents were administered into the lateral tail vein.
(§1) Mice were closely observed after treatment for clinical signs of toxicity and clinical status was documented at defined time points (5 minutes, 10 minutes, 15 minutes, 30 minutes. 1 hour, 2 hours, 24 hours, 48 hours, 72 hours). Blood samples were taken from the tail vein at 1 hour, 2 hours and 24 hours to measure TNFα blood levels. Three days after treatment, the mice were anesthetized, blood samples were taken from the vena cava for coagulation tests, and an autopsy was performed to document any changes in gross pathology. Tumors, lymph node metastases and the major normal organs (heart, lung, brain, liver, kidney, colon, spleen, pancreas) were harvested and prepared for histological analysis.
Tissue samples harvested at the time of autopsy were fixed in 3% NBF (normal buffered formalin) and embedded in paraffin wax. Tissue blocs were cut, dewaxed and stained with hematoxilin and eosin (H&E). Tissue sections were analyzed on a light microscope by two independent investigators and histological findings were documented. Tumor sections with necrotic areas were scanned with a GS-700 imaging densitometer (Biorad, Hercules, Calif.) and areas of necrosis were calculated as % of total section area. Statistical Analysis was performed using SPSS software (SPSS Science Software, Erkrath, Germany) applying the Mann-Whitney-U-test for ungrouped data.

In another data set the test system is F9 sarcoma tumors. The experiment in a line: Tumor tissue necrosis in F9 sarcoma mouse model. As to conditions: endotoxin-free tTF 4 μg; diluent 40-50% spontaneous necrosis. It counts as in vivo, balb/c nude mice. Here is the method: 1×10^7 F9 sarcoma cells were injected subcutaneously into the right flank of balb/c nude mice. Subcutanous tumors were measured with a caliper in three perpendicular directions a, b, and c, and volumes calculated according to the formula V=π/6×a'b×c. Treatment was initiated when subcutaneous tumors reached a size of 150 to 300 μl.
Reagents were administered into the lateral tail vein.
Mice were closely observed after treatment for clinical signs of toxicity and clinical status was documented at defined time points. Three days after treatment, mice were sacrificed and tumors were harvested. Paraffin embedded tissues were stained with hematoxilin and eosin (H&E). Tissue sections were analyzed on a light microscope by two independent investigators and histological findings were documented. Tumor sections with necrotic areas were scanned with a GS-700 imaging densitometer (Biorad, Hercules, Calif.) and areas of necrosis were calculated as % of total section area.

A further data set has as its system L540 tumors. Put plainly: Anti-tumor activity of anti-VCAM-1·tTF coaguligand in L540 tumors. It counts as in vivo, SCID mice. As to conditions: controls. Here is the method: The anti-tumor activity of anti-VCAM-1-tTF coaguligand was determined in SCID mice bearing 0.3-0.4 cm^3 L540 tumors. The drug was administered i.v. 3 times at intervals of 4 days.
In another data set the test system is bEnd 3 cells. The experiment in a line: Cell bound coagulation assay on stimulated endothelial cells (Factor Xa generation). Particulars: for Factor Xa generation due to Factor VIIa production: mix with 2 μg/ml factor VII and 0.01 μg/ml factor VIIa; for Factor Xa generation: mix with 0.5 μg/ml factor VIIa. It is filed as cell-based, mouse. The method, then:
(§2) To assay the coagulation induction of stimulated versus unstimulated endothelial cells, bend 3 cells were seeded in 48 well tissue culture plates at a density of 1×10^4 cells per well and allowed to adhere overnight. Cells were stimulated with endotoxin (0.5 μg/ml and 10 μg/ml) or TNFα (500 U/ml) for 4 h at 37° C. […] After incubation for 45 min at room temperature, cells were washed and incubated with various coagulation factor mixes as follows: (1) 0.5 μg/ml factor VIIa in a mix containing 2.8 μg/ml factor IX, 3.4 μg/ml factor X, 50 μM phospholipids, in calcium buffer (as specified above); (2) 0.01 μg/ml factor VIIa in a mix as in (1); (3) 2 μg/ml factor VII (Calbiochem-Novabiochem, San Diego, Calif.) in a mix as in (1); (4) 2 μg/ml factor VII. 0.01 μg/ml factor VIIa in a mix as in (1). The supernatant of wells was transferred into a 96 well ELISA plate. Substrate S2765 was added and Factor Xa generation measured alongside different concentrations of Factor Xa standard (7 nkatS2222; 0.7 nkatS2222; 0.07 nkatS2222). OD405 nm values were calculated as nkatS2222 Factor Xa from the Factor Xa standard curve.
as §2, with “bEnd” for “To assay the coagulation induction of stimulated versus unstimulated endothelial cells, bend”, “with” for “with various”, “mix” for “mixes”, “follows:” for “follows: (1)”, “buffer;” for “buffer (as specified above); (2) 0.01 μg/ml factor VIIa in a mix as in (1); (3) 2 μg/ml factor VII (Calbiochem-Novabiochem, San Diego, Calif.) in a mix as in (1); (4) 2 μg/ml factor VII. 0.01 μg/ml factor VIIa in a mix as in (1). The”

For data set [2], the system named is thrombin-antithrombin-complexes (TAT). The experiment in a line: Plasma thrombin-antithrombin-complexes (Enzygnost TAT micro-assay) three days after treatment. It counts as in vivo. As to conditions: tTF alone; tumor bearing mice, three days after i.v. treatment. Here is the method: as §1
At the time of autopsy, citrated blood was sampled from the vena cava and thrombocyte-free plasma was prepared by centrifugation. […] Thrombin-Antithrombin-complexes were detected with the Enzygnost® TAT micro-assay (Dade-Behring, Marburg, Germany) according to the manufacturer's instructions. ATIII levels were determined using the Coamatic® antithrombin-assay (Haemocbrom, Essen, Germany) following the manufacturer's instructions. Changes in the blood levels of thrombin and plasmin were detected by mixing citrated plasma with the respective chromogenic substrates S2238 and S2403 (Haemochrom, Essen, Germany) and measuring the increase of the absorption at 405 nm by an ELISA reader.

As for “tTF: extracellular domain of the mature Tissue Factor protein (amino acid 1-219), recombinant; depyrogenated in Example X”, in data set [1] (Table 2, tTF alone, three days after i.v. treatment), the “% tumor necrosis” value is listed as 4%. This substance also displayed a tumor tissue necrosis in data set [1] (endotoxin-free tTF alone, 4 μg or 16 μg i.v., three days after treatment) of 0%. The anti-tumor effect result in data set [1] (tTF alone, 4 μg to 16 μg) was “no anti-tumor effect”; in data set [1] (tTF alone, 100 μg), “anti-tumor effects begin to appear”. Moreover, the “average tumor tissue necrosis” value in the data set with F9 sarcoma tumors amounted to 45%. Further, the “effect on tumor growth” value with L540 tumors is recorded as “did not affect tumor growth”. Also, the “Factor Xa generation due to Factor VIIa production” value in the data set on bEnd 3 cells (cells stimulated with 0.5 μg/ml LPS (row Medium = stimulant alone)) is 3.00 nkats2222; with bEnd 3 cells (cells stimulated with TNFα (row Medium = stimulant alone)), 1.91 nkats2222; in the data set with bEnd 3 cells (cells stimulated with medium) it was 0.70 nkats2222. Besides, the “Factor Xa generation” value was found to be 2.00 nkats2222 in the data set on bEnd 3 cells (cells stimulated with 0.5 μg/ml LPS, then incubated with row agent (row Medium = stimulant alone)); 2.91 nkats2222 in the data set with bEnd 3 cells (cells stimulated with 10 μg/ml LPS, then incubated with row agent (row Medium = stimulant alone)); 0.67 nkats2222 in the data set on bEnd 3 cells (cells stimulated with TNFα (500 U/ml), then incubated with row agent (row Medium = stimulant alone)); 0.40 nkats2222 in the data set with bEnd 3 cells (cells stimulated with medium, then incubated with row agent). In data set [2], this substance had a TAT of 25.4 ng/mL.
